Key:
Type in all cases: cell-based
[1] = tested on: Hepa1-6 cells; test: Drug interaction (combination) in Hepa1-6 cell proliferation
Experimental: FIGS. 42A-42B show drug interaction effect of Compound I-32 (FIG. 42A) and Compound I-1 (FIG. 42B) in combination with regorafenib in Hepa1-6 cell proliferation. In FIG. 42A, “1+0.05 (μM)” means 1 μM Compound I-32+0.05 μM regorafenib, etc. In FIG. 42B, “1+0.05 (μM)” means 1 μM Compound I-1+0.05 μM regorafenib, etc.
In FIG. 46A, “1+0.05 (μM)” means 1 μM Compound I-1+0.05 μM sorafenib, etc. […] In FIG. 46B, “1+0.3 (μM)” means 1 μM Compound I-1+0.3 μM lenvatinib, etc. […] In FIG. 46C, “1+0.05 (μM)” means 1 μM Compound I-32+0.05 μM sorafenib, etc. […] In FIG. 46D, “1+0.3 (μM)” means 1 μM Compound I-32+0.3 μM lenvatinib, etc.

[2] = tested on: mouse primary hepatocytes; test: 14C-acetate incorporation into total lipids in primary mouse hepatocytes; conditions: Hepatocyte, 4-hour period, read-out: IC50 in μM, inhibition of 14C-acetate incorporation in total lipids
Experimental: After perfusion, collagen digested liver cells were re-suspended in William's E media (11 mM glucose) (Gibco) supplemented with 10% fetal bovine serum (FBS) (Gibco), 2 mM L-glutamine (Gibco) and 1% Antibiotic-Antimycotic (Gibco) mixture and seeded in white opaque 96-well plates. On the following day, the cells were serum-starved for 2 hours, then treated with 0 μM, 0.1 μM, 0.3 μM, 0.5 μM, 1 μM, 3 μM, 10 μM, and 100 μM of Compound I-32, Compound I-1, or Compound III-1 or Reference Compound (e.g., Compounds A-E and bempedoic acid) in the presence of ^14C-Acetate (1 μCi/ml, PerkinElmer). Each of Compound I-32, Compound I-1, Compound III-1, and Reference Compound was solubilized in 100% DMSO to a final concentration of 100 mM stock solution. In the experimental condition, the stock solution was diluted in serum free media (William's E media (11 mM glucose) (Gibco), 2 mM L-glutamine (Gibco) and 1% Anti biotic-Antimycotic) to yield the desired concentration of each compound. […] After 4 hours of treatment, the plates were washed two times with PBS (×1) and 100 μL microscint fluid (Microscint O, part #601361) was added in each well. Plates were wrapped with aluminum foil and were shaken at 250 rpm for 2 h. After 2 h of shaking, ^14C incorporation into lipid was determined by liquid scintillation counting using a TopCount NXT Microplate Scintillation and Luminescence Counter (Perkin Elmer).
The effects of Compound I-32. Compound I-1, and Compound III-1 on mouse primary hepatocyte lipogenesis are represented in Table 1. Each Compound was assayed at a concentration of 0 μM (vehicle control), 0.1 μM, 0.3 μM, 0.5 μM, 1 μM, 3 μM, 10 μM, and 100 μM, unless otherwise noted. Statistically significant inhibition was determined by one-way ANOVA and Dennett's post hoc test where appropriate. […] IC50 values were determined by nonlinear regression. All statistical analyses were carried out using GraphPad Prism 8 software. A p-value of less than or equal 0.05 was considered significant.

[3] = tested on: Hep3B human hepatocarcinoma cells; test: Colony formation assay (clonogenic survival, 7 days); conditions: 168 h, read-out: Hep3B (IC50), anti-clonogenic activity
Experimental: (§1) Colony formation assay. Hep3B and Hepa1-6 cells were seeded in 12-well plates at a cell density of 1000 and 500 cells/well, respectively. On day 2, media in each well was aspirated and replaced with 1000 μl of fresh complete media and cells were treated with or without the respective drugs in an increasing concentration followed by the incubation of the cells for 7 days in an incubator.
(§2) On day 9, the media in each well was aspirated and cells were fixed with 10% formalin (500 μl) for 10 minutes at room temperature. Formalin was aspirated and the plates were washed with 1×PBS and stained with crystal violet for another 10 minutes. After 10 minutes of staining, crystal violet was […] the cells, rinsed with tap water for three times and the plates were dried overnight. Next day, colonies (>50 cells) were counted and analyzed.
(§3) Statistical tests. Results were indicated as mean±standard deviation (SD). All line graphs were prepared using Graph Pad Prism 8 software. Proliferation and clonogenics IC50 values were calculated using a non-linear regression model in Graph pad Prism 8.

[4] = tested on: Hepa1-6 murine hepatoma cells; test: as above; conditions: Mus musculus, Hepa1-6, 168 h, read-out: Hepa1-6 (IC50), anti-clonogenic activity
Experimental: as §1, §2, §3

[5] = tested on: Hep3B cells; test: Drug interaction (combination) in Hep3B cell proliferation
Experimental: FIGS. 41A-41B show drug interaction effect of Compound I-32 (FIG. 41A) and Compound I-1 (FIG. 41B) in combination with regorafenib in Hep3B cell proliferation. In FIG. 41A, “1+0.015 (μM)” means 1 μM Compound I-32+0.015 μM regorafenib, etc. In FIG. 41B, “1+0.015 (μM)” means 1 μM Compound I-1+0.015 μM regorafenib, etc.
In FIG. 44A, “1+0.03 (μM)” means 1 μM Compound I-1+0.03 μM sorafenib, etc. […] In FIG. 44B, “1+0.005 (μM)” means 1 μM Compound I-1+0.005 μM lenvatinib, etc. […] In FIG. 44C, “1+0.03 (μM)” means 1 μM Compound I-32+0.03 μM sorafenib, etc. […] In FIG. 44D, “1+0.005 (μM)” means 1 μM Compound I-32+0.005 μM lenvatinib, etc.

SMILES: CC(C)(CCCCc1ccc(CCCCC(C)(C)C(=O)O)cc1)C(=O)O [Compound I-1, 6-[4-(5-carboxy-5-methylhexyl)-phenyl]-2,2-dimethylhexanoic acid]
- drug interaction effect in combination with lenvatinib ([1]; at all tested concentrations): synergism
- drug interaction effect in combination with sorafenib ([1]; at all tested concentrations): synergism
- IC50 [2]: 0.46 µM
- IC50 [3]: 50.7 µM
- IC50 [4]: 67.6 µM
- drug interaction effect in combination with lenvatinib ([5]; at various concentrations): synergism
- drug interaction effect in combination with sorafenib ([5]; at various concentrations): synergism

SMILES: CC(C)(CCCCc1cccc(CCCCC(C)(C)C(=O)O)c1)C(=O)O [Compound I-32, 6-[3-(5-carboxy-5-methylhexyl)-phenyl]-2,2-dimethylhexanoic acid]
- drug interaction effect in combination with lenvatinib ([1]; at all tested concentrations): synergism
- drug interaction effect in combination with sorafenib ([1]; at various concentrations): synergism
- IC50 [2]: 0.34 µM
- IC50 [3]: 40.8 µM
- IC50 [4]: 58.9 µM
- drug interaction effect in combination with sorafenib ([5]; at all tested concentrations): synergism
- drug interaction effect in combination with lenvatinib ([5]; at various concentrations): synergism

Reference: US11730712B2, “Functionalized long-chain hydrocarbon mono- and di-carboxylic acids and derivatives thereof, and their use for the prevention or treatment of disease” (ESPERVITA THERAPEUTICS, INC., priority 2021, dated 2023)
